Results published in the supplement of paper PMC3493320.

Tests used:
NCI-H295R [1] = assay: IC50 (antiproliferative, ATP content); conditions: 48 h
NCI-H295R [2] = assay: maximal response (efficacy) relative to DMSO (0%) and doxorubicin (-100%); higher = less growth inhibition; conditions: 48 h

## O[C@H]2C[C@@H](O[C@H](C)[C@H]2O[C@@H]3O[C@H](C)[C@@H](O[C@H]4C[C@H](O)[C@H](OC)[C@@H](C)O4)[C@@H](O)C3)O[C@H]1CC[C@@]5(C)[C@@](CC[C@]6([H])[C@@]([H])5C[C@@H](O)[C@@]7(C)[C@@](O)6CC[C@@H]7[C@@](CO8)=CC8=O)([H])C1
NCI-H295R [1]
  IC50: 0.237 µM
NCI-H295R [2]
  maximal response: -111%

## [Cl-].C/[N+](C)=C1\C=C/C(C=C1)=C(\c2ccc(cc2)N(C)C)c3ccc(cc3)N(C)C
NCI-H295R [1]
  IC50: 11.9 µM
NCI-H295R [2]
  maximal response: -130%

## CCCCCCCC/C=C\CCCCCCCC(=O)NCc1ccc(O)c(OC)c1
NCI-H295R [1]
  IC50: 8.41 µM
NCI-H295R [2]
  maximal response: -122%

## CC1=C(/C=C/C(C)=C/C=C/C(C)=C/C(=O)Nc2ccc(O)cc2)C(C)(C)CCC1
NCI-H295R [1]
  IC50: 9.44 µM
NCI-H295R [2]
  maximal response: -125%

## O=C3O[C@@H]2[C@@H]1O[C@@](C)1CC/C=C(C)/CC[C@H]2[C@@]3=C
NCI-H295R [1]
  IC50: 18.8 µM
NCI-H295R [2]
  maximal response: -138%

## OC[C@H]1O[C@@H](n2cnc3c(S)ncnc32)[C@H](O)[C@@H]1O
NCI-H295R [1]
  IC50: 2.99 µM
NCI-H295R [2]
  maximal response: -68.2%

## C[C@H]1CC[C@]2(NC1)O[C@H]1C[C@H]3[C@@H]4CC[C@H]5C[C@@H](O[C@@H]6O[C@H](CO)[C@H](O[C@@H]7O[C@H](CO)[C@@H](O)[C@H](O[C@@H]8OC[C@@H](O)[C@H](O)[C@H]8O)[C@H]7O[C@@H]7O[C@H](CO)[C@@H](O)[C@H](O)[C@H]7O)[C@H](O)[C@H]6O)CC[C@]5(C)[C@H]4CC[C@]3(C)[C@H]1[C@@H]2C
NCI-H295R [1]
  IC50: 1.88 µM
NCI-H295R [2]
  maximal response: -127%

## CCOc1nc2cccc(C(=O)O)c2n1Cc1ccc(-c2ccccc2-c2nnn[nH]2)cc1
NCI-H295R [1]
  IC50: 15 µM
NCI-H295R [2]
  maximal response: -145%

## C=C1CC[C@H](O)C/C1=C/C=C1\CCC[C@]2(C)[C@@H]([C@H](C)CCCC(C)(C)O)CC[C@@H]12
NCI-H295R [1]
  IC50: 26.6 µM
NCI-H295R [2]
  maximal response: -166%

## CCN(CC)CCNc1ccc(CO)c2sc3ccccc3c(=O)c12
NCI-H295R [1]
  IC50: 7.5 µM
NCI-H295R [2]
  maximal response: -124%

## C[C@@]12C(=O)OC(=O)[C@]1(C)C1CCC2O1
NCI-H295R [1]
  IC50: 1.43 µM
NCI-H295R [2]
  maximal response: -114%

## Oc1c(Cl)cc(Cl)c2cccnc12
NCI-H295R [1]
  IC50: 5.31 µM
NCI-H295R [2]
  maximal response: -105%

## COC(=O)C[C@](O)(CCCC(C)(C)O)C(=O)O[C@@H]1C(OC)=C[C@]23CCCN2CCc2cc4c(cc2[C@H]13)OCO4
NCI-H295R [1]
  IC50: 0.211 µM
NCI-H295R [2]
  maximal response: -125%

## O=C1OCCN1/N=C/c1ccc([N+](=O)[O-])o1
NCI-H295R [1]
  IC50: 16.8 µM
NCI-H295R [2]
  maximal response: -72.7%

## COc1cccc2c1C(=O)c1c(O)c3c(c(O)c1C2=O)C[C@@](O)(C(C)=O)C[C@@H]3O[C@H]1C[C@H](N)[C@H](O)[C@H](C)O1
NCI-H295R [1]
  IC50: 10.6 µM
NCI-H295R [2]
  maximal response: -126%

## CCN1/C(=C\C=C\c2ccc3ccccc3[n+]2CC)C=Cc2ccccc21.[I-]
NCI-H295R [1]
  IC50: 23.7 µM
NCI-H295R [2]
  maximal response: -134%

## C[CH2][Hg][S]c1ccccc1C(=O)[O-].[Na+]
NCI-H295R [1]
  IC50: 2.66 µM
NCI-H295R [2]
  maximal response: -124%

## Cc1cc2c(C(C)C)c(O)c(O)c(C=O)c2c(O)c1-c1c(C)cc2c(C(C)C)c(O)c(O)c(C=O)c2c1O
NCI-H295R [1]
  IC50: 10.6 µM
NCI-H295R [2]
  maximal response: -127%

## C=CCNC1=C2C[C@@H](C)C[C@H](OC)[C@H](O)[C@@H](C)/C=C(\C)[C@H](OC(N)=O)[C@@H](OC)/C=C\C=C(/C)C(=O)NC(=CC1=O)C2=O
NCI-H295R [1]
  IC50: 8.41 µM
NCI-H295R [2]
  maximal response: -105%

## COc1cc2c(cc1OC)-c1c/c(=N\c3c(C)cc(C)cc3C)n(C)c(=O)n1CC2.Cl
NCI-H295R [1]
  IC50: 21.1 µM
NCI-H295R [2]
  maximal response: -149%

## C=C1/C(=C\C=C2/CCC[C@]3(C)[C@@H]([C@H](C)CCCC(C)(C)O)CC[C@@H]23)C[C@@H](O)C[C@@H]1O
NCI-H295R [1]
  IC50: 18.8 µM
NCI-H295R [2]
  maximal response: -140%

## C[C@H]1CC[C@@H]2[C@@H](C)[C@H]3[C@H](C[C@H]4[C@@H]5CC=C6CC(O[C@@H]7O[C@H](CO)[C@H](O)[C@H](O[C@@H]8O[C@H](CO)[C@@H](O)[C@H](O)[C@H]8O)[C@H]7O[C@H]7O[C@@H](C)[C@H](O)[C@@H](O)[C@H]7O)CC[C@]6(C)[C@H]5CC[C@]34C)N2C1 (stereo partly drawn)
NCI-H295R [1]
  IC50: 18.8 µM
NCI-H295R [2]
  maximal response: -135%

## CC(=O)Oc1ccccc1C(=O)Nc1ncc([N+](=O)[O-])s1
NCI-H295R [1]
  IC50: 15 µM
NCI-H295R [2]
  maximal response: -70.8%

## O=C1NCN(c2ccccc2)C12CCN(CCCC(c1ccc(F)cc1)c1ccc(F)cc1)CC2
NCI-H295R [1]
  IC50: 11.9 µM
NCI-H295R [2]
  maximal response: -137%

## CC(C)=CCOc1ccc(C=CC(=O)c2ccc(OCC=C(C)C)cc2OCC(=O)O)cc1
NCI-H295R [1]
  IC50: 23.7 µM
NCI-H295R [2]
  maximal response: -145%

## CO[C@@]12[C@H](COC(N)=O)C3=C(C(=O)C(C)=C(N)C3=O)N1C[C@@H]1N[C@@H]12
NCI-H295R [1]
  IC50: 26.6 µM
NCI-H295R [2]
  maximal response: -132%

## COc1cc([C@@H]2c3cc4c(cc3C(O[C@@H]3O[C@@H]5COC(c6cccs6)O[C@H]5[C@H](O)[C@H]3O)C3COC(=O)[C@@H]32)OCO4)cc(OC)c1O (stereo partly drawn)
NCI-H295R [1]
  IC50: 8.41 µM
NCI-H295R [2]
  maximal response: -94.9%

## O=C(Nc1ccc(Oc2ccc(Cl)cc2)c(Cl)c1)c1cc(I)cc(I)c1O
NCI-H295R [1]
  IC50: 4.73 µM
NCI-H295R [2]
  maximal response: -137%

## COc1cc(NCc2ccc3nc(N)nc(N)c3c2C)cc(OC)c1OC.Cl.Cl.Cl
NCI-H295R [1]
  IC50: 0.0133 µM
NCI-H295R [2]
  maximal response: -80.4%

## CC[C@H](C)[C@H]1O[C@]2(CC[C@@H]1C)C[C@@H]1C[C@@H](C/C=C(\C)[C@@H](O[C@H]3C[C@H](OC)[C@@H](O[C@H]4C[C@H](OC)[C@@H](O)[C@H](C)O4)[C@H](C)O3)[C@@H](C)/C=C/C=C3\CO[C@@H]4[C@H](O)C(C)=C[C@@H](C(=O)O1)[C@]34O)O2
NCI-H295R [1]
  IC50: 4.22 µM
NCI-H295R [2]
  maximal response: -123%

## CCN1C(=CC=Cc2sc3ccccc3[n+]2CC)Sc2ccccc21.[I-]
NCI-H295R [1]
  IC50: 15 µM
NCI-H295R [2]
  maximal response: -149%

## CCCCCCCCCCCCCC[N+](C)(C)C.[Br-]
NCI-H295R [1]
  IC50: 23.7 µM
NCI-H295R [2]
  maximal response: -160%

## Cc1cc(C2CCCCC2)n(O)c(=O)c1.NCCO
NCI-H295R [1]
  IC50: 0.64 µM
NCI-H295R [2]
  maximal response: -61.1%

## N=C(N)NN=C(/C=C/c1ccc([N+](=O)[O-])o1)/C=C/c1ccc([N+](=O)[O-])o1
NCI-H295R [1]
  IC50: 5.31 µM
NCI-H295R [2]
  maximal response: -124%

## C/C=C(/C(=C/C)c1ccc(O)cc1)c1ccc(O)cc1
NCI-H295R [1]
  IC50: 4.53 µM
NCI-H295R [2]
  maximal response: -68.5%

## Clc1ccc(COC(Cn2ccnc2)c2ccc(Cl)cc2Cl)cc1.O=[N+]([O-])O (stereo not drawn)
NCI-H295R [1]
  IC50: 26.6 µM
NCI-H295R [2]
  maximal response: -149%

## Oc1c(Cl)cc(Cl)c(Cl)c1Cc1c(O)c(Cl)cc(Cl)c1Cl
NCI-H295R [1]
  IC50: 15 µM
NCI-H295R [2]
  maximal response: -121%

## CCN(CC)CCCN(c1ccccc1)C1Cc2ccccc2C1.Cl
NCI-H295R [1]
  IC50: 16.8 µM
NCI-H295R [2]
  maximal response: -138%

## COC(COC(N)=O)C1=C(N2CC2)C(=O)C(C)=C(N2CC2)C1=O (stereo not drawn)
NCI-H295R [1]
  IC50: 0.75 µM
NCI-H295R [2]
  maximal response: -120%

## C=C1/C(=C\C=C2/CCC[C@]3(C)[C@@H]([C@H](C)CCCC(C)C)CC[C@@H]23)C[C@@H](O)C[C@@H]1O
NCI-H295R [1]
  IC50: 23.7 µM
NCI-H295R [2]
  maximal response: -142%

## CCc1oc2ccccc2c1C(=O)c1cc(I)c(O)c(I)c1
NCI-H295R [1]
  IC50: 7.5 µM
NCI-H295R [2]
  maximal response: -101%

## CC[C@@H](C(=O)O)[C@@H]1O[C@@H]([C@@H](C)[C@H](O)[C@H](C)C(=O)[C@H](CC)[C@H]2O[C@]3(C=C[C@@H](O)[C@]4(CC[C@@](C)([C@H]5CC[C@](O)(CC)[C@H](C)O5)O4)O3)[C@H](C)C[C@@H]2C)[C@@H](C)C[C@@H]1C
NCI-H295R [1]
  IC50: 5.31 µM
NCI-H295R [2]
  maximal response: -140%

## Cl.Nc1c2ccccc2nc2ccccc12.O
NCI-H295R [1]
  IC50: 18.8 µM
NCI-H295R [2]
  maximal response: -131%

## O=C(Nc1ccc(Br)cc1)c1cc(Br)cc(Br)c1O
NCI-H295R [1]
  IC50: 5.31 µM
NCI-H295R [2]
  maximal response: -118%

## Oc1ccc(Cl)cc1Sc1cc(Cl)ccc1O
NCI-H295R [1]
  IC50: 15 µM
NCI-H295R [2]
  maximal response: -135%

## [O-]S(C1=C(O)C(\C(C4=CC=C(N(C)C)C=C4)=C(C=C2)/C=C/C2=[N+](C)\C)=C(C=C3)C(C=C3S([O-])(=O)=O)=C1)(=O)=O.[Na+]
NCI-H295R [1]
  IC50: 11.9 µM
NCI-H295R [2]
  maximal response: -103%

## CN(C)c1ccc2nc3ccc(N(C)C)cc3[s+]c2c1.[Cl-]
NCI-H295R [1]
  IC50: 15 µM
NCI-H295R [2]
  maximal response: -109%

## [Na+].[Na+].[O-]C(=O)c4c(Cl)c(Cl)c(Cl)c(Cl)c4C=2c3cc(I)c([O-])c(I)c3OC=1C=2\C=C(\I)C(=O)C=1I
NCI-H295R [1]
  IC50: 23.7 µM
NCI-H295R [2]
  maximal response: -153%

## O=C([C@](C(C=C4OC)=C(C=C4OC)OC3)([H])[C@]3([H])O2)C(C=C5)=C2C1=C5O[C@@H]([C@@](C)=C)C1
NCI-H295R [1]
  IC50: 0.75 µM
NCI-H295R [2]
  maximal response: -69.2%
